Data: patent US20230174510A1, “N-acetylserotonin Derivatives as TrkB Activators and Uses Thereof” (Emory University, priority 2020, published 2023)

B1: BDNF: Brain-Derived Neurotrophic Factor; TrkB is its cognate receptor (protein, UniProt P23560 19-247, looked up)
Neurotrophic factor BDNF …: APMKEANIRGQGGLAYPGVRTHGTLESVNGPKAGSRGLTSLADTFEHVIEELLDEDQKVRPNEENNKDADLYTSRVMLSSQVPLEPPLLFLLEEYKNYLDAANMSMRVRRHSDPARRGELSVCDSISEWVTAADKKTAVDMSGGTVTVLEKVPVSKGQLKQYFYETKCNPMGYTKEGCRGIDKRHWNSQCRTTQSYVRALTMDSKKRIGWRFIRIDTSCVCTLTIKRGR

Test system: AKT
Test: AKT phosphorylation, western blot, primary rat cortical neuronal culture
Assay type: cell-based
Set-up: key: “+”=increased phosphorylation; “−”=decreased phosphorylation; “nc”=no change
Conditions: not given
Procedure: (§1) Different concentrations of 2-fluoro-N-(2-(5-hydroxy-1H-indol-3-yl)ethyl)nicotinamide (analogue 147) were tested in NIH-3T3-TrkB cells. Cells at 70-80% confluency were serum deprived overnight and then stimulated with different concentrations of analogue 147 for 30 minutes. Protein extract was collected and subjected for western blot analysis. […] “+”=increased phosphorylation; “−”=decreased phosphorylation; “nc”=no change.
(§2) To screen the analogs for biological activity, the phosphorylation state of TrkB and AKT, a downstream signaling mediator of TrkB activation, was examined in cultured NIH/3T3 cells expressing human TrkB and in primary cultures of rat cortical neurons (see FIG. 5).

| Molecule | pAkt/β-actin |
| --- | --- |
| O=C(NCCc1c[nH]c2ccc(O)cc12)c1cncc(F)c1 [Analogue 127, 5-Fluoro-N-(2-(5-hydroxy-1H-indol-3-yl)ethyl)nicotinamide] | + |
| O=C1NCCCC1C(=O)NCCc1c[nH]c2ccccc12 (stereo not shown) [Analogue 145, N-(2-(1H-indol-3-yl)ethyl)-2-oxopiperidine-3-carboxamide] | + |
| O=C(NCCc1c[nH]c2ccc(O)cc12)c1cccnc1F [Analogue 147, 2-fluoro-N-(2-(5-hydroxy-1H-indol-3yl)ethyl)nicotinamide] | + |
| COc1ccc2[nH]cc(CCNC(=O)C3CCCNC3=O)c2c1 (stereo not shown) [Analogue 149, N-(2-(5-methoxy-1H-indol-3-yl)ethyl)-2-oxopiperidine-3-carboxamide] | + |
| CN1CCCC(C(=O)NCCc2c[nH]c3ccc(O)cc23)C1=O (stereo not shown) [Analogue 151, N-(2-(5-hydroxy-1H-indol-3-yl)ethyl)-1-methyl-2-oxopiperidine-3-carboxamide] | − |
| CC1(C(=O)NCCc2c[nH]c3ccc(O)cc23)CCCNC1=O (stereo not shown) [Analogue 170, N-(2-(5-hydroxy-1H-indol-3-yl)ethyl)-3-methyl-2-oxopiperidine-3-carboxamide] | nc |
| B1 | + |

Target: T1, TrkB (Rattus norvegicus, UniProt Q63604)
T1 construct: in primary cultures of rat cortical neurons; endogenous in cells; host or cells: primary rat cortical neurons
Test: TrkB phosphorylation, western blot, primary rat cortical neuronal culture
Assay type: cell-based
Set-up: key: “+”=increased phosphorylation; “−”=decreased phosphorylation; “nc”=no change
Conditions: not given
Procedure: as §1, §2

T1 sequence (Q63604 32-821): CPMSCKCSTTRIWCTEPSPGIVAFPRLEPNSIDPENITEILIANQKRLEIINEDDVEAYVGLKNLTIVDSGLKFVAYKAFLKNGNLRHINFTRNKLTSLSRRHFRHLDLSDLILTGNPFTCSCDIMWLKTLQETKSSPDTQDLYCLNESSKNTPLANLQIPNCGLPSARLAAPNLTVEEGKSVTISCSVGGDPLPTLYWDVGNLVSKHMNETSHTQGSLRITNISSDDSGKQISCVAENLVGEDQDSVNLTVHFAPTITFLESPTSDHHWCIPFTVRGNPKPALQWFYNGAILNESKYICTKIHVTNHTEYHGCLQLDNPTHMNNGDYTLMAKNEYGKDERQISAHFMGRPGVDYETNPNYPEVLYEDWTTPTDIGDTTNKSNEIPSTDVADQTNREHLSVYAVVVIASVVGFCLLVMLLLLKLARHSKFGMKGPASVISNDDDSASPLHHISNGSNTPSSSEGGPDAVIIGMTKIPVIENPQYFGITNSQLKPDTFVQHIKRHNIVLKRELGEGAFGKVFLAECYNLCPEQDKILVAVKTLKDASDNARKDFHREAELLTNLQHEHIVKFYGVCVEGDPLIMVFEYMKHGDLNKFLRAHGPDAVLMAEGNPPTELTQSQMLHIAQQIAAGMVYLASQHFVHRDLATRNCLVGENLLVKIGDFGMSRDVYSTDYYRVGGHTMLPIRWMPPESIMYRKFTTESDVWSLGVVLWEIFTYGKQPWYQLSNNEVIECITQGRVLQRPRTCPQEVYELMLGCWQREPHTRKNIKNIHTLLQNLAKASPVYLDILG

| Molecule | pTrkB/β-actin |
| --- | --- |
| O=C(NCCc1c[nH]c2ccc(O)cc12)c1cncc(F)c1 [Analogue 127, 5-Fluoro-N-(2-(5-hydroxy-1H-indol-3-yl)ethyl)nicotinamide] | + |
| O=C1NCCCC1C(=O)NCCc1c[nH]c2ccccc12 (stereo not shown) [Analogue 145, N-(2-(1H-indol-3-yl)ethyl)-2-oxopiperidine-3-carboxamide] | + |
| O=C(NCCc1c[nH]c2ccc(O)cc12)c1cccnc1F [Analogue 147, 2-fluoro-N-(2-(5-hydroxy-1H-indol-3yl)ethyl)nicotinamide] | + |
| COc1ccc2[nH]cc(CCNC(=O)C3CCCNC3=O)c2c1 (stereo not shown) [Analogue 149, N-(2-(5-methoxy-1H-indol-3-yl)ethyl)-2-oxopiperidine-3-carboxamide] | + |
| CN1CCCC(C(=O)NCCc2c[nH]c3ccc(O)cc23)C1=O (stereo not shown) [Analogue 151, N-(2-(5-hydroxy-1H-indol-3-yl)ethyl)-1-methyl-2-oxopiperidine-3-carboxamide] | + |
| CC1(C(=O)NCCc2c[nH]c3ccc(O)cc23)CCCNC1=O (stereo not shown) [Analogue 170, N-(2-(5-hydroxy-1H-indol-3-yl)ethyl)-3-methyl-2-oxopiperidine-3-carboxamide] | + |
| B1 | + |

Target: T2, TrkB (Homo sapiens, UniProt Q16620)
Test: TrkB phosphorylation, western blot, NIH 3T3 cells expressing human TrkB
Assay type: cell-based
Set-up: expressed in transfected cells; host or cells: NIH/3T3 (NIH-3T3-TrkB) cells; key to pTrkB/β-actin: “+”=increased phosphorylation; “−”=decreased phosphorylation; “nc”=no change
Conditions: NIH 3T3 - TrkB cells, western blot
Procedure: as §1, §2
Target sequence in this assay (Q16620 32-822): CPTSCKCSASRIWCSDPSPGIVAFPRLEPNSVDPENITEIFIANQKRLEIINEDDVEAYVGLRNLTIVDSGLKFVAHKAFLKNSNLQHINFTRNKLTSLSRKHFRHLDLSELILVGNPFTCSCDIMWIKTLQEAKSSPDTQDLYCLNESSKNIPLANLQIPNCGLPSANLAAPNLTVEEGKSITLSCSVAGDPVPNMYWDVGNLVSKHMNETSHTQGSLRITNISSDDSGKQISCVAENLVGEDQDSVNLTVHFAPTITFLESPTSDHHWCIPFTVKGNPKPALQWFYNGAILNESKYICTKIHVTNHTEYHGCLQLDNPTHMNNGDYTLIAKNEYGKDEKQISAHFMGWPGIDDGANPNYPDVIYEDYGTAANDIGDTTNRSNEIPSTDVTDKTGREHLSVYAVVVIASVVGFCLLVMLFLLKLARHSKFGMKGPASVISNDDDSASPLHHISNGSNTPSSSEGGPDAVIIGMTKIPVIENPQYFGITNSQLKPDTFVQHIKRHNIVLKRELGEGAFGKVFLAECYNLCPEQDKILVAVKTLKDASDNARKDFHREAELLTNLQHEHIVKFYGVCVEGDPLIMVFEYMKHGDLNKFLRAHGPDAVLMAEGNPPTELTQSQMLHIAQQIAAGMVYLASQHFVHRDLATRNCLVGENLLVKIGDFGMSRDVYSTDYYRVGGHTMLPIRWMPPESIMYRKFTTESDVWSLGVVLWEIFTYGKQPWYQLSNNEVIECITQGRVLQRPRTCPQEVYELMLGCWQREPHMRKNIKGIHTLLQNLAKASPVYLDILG

| Molecule | pTrkB/β-actin |
| --- | --- |
| O=C(NCCc1c[nH]c2ccc(O)cc12)c1cncc(F)c1 [Analogue 127, 5-Fluoro-N-(2-(5-hydroxy-1H-indol-3-yl)ethyl)nicotinamide] | + |
| O=C1NCCCC1C(=O)NCCc1c[nH]c2ccccc12 (stereo not shown) [Analogue 145, N-(2-(1H-indol-3-yl)ethyl)-2-oxopiperidine-3-carboxamide] | + |
| O=C(NCCc1c[nH]c2ccc(O)cc12)c1cccnc1F [Analogue 147, 2-fluoro-N-(2-(5-hydroxy-1H-indol-3yl)ethyl)nicotinamide] | + |
| COc1ccc2[nH]cc(CCNC(=O)C3CCCNC3=O)c2c1 (stereo not shown) [Analogue 149, N-(2-(5-methoxy-1H-indol-3-yl)ethyl)-2-oxopiperidine-3-carboxamide] | − |
| CC1(C(=O)NCCc2c[nH]c3ccc(O)cc23)CCCNC1=O (stereo not shown) [Analogue 170, N-(2-(5-hydroxy-1H-indol-3-yl)ethyl)-3-methyl-2-oxopiperidine-3-carboxamide] | + |
| B1 | + |

Same assay, conditions: NIH-3T3-TrkB cells, serum deprived overnight, stimulated 30 minutes

| Molecule | concentration of best TrkB activation [nM] |
| --- | --- |
| O=C(NCCc1c[nH]c2ccc(O)cc12)c1cncc(F)c1 [Analogue 127, 5-Fluoro-N-(2-(5-hydroxy-1H-indol-3-yl)ethyl)nicotinamide] | 100 |
| O=C(NCCc1c[nH]c2ccc(O)cc12)c1cccnc1F [Analogue 147, 2-fluoro-N-(2-(5-hydroxy-1H-indol-3yl)ethyl)nicotinamide] | 10 |

Same assay, conditions: NIH-3T3-TrkB cells, stimulated 30 minutes

| Molecule | TrkB activation, concentration dependence |
| --- | --- |
| O=C(NCCc1c[nH]c2ccc(O)cc12)c1cncc(F)c1 [Analogue 127, 5-Fluoro-N-(2-(5-hydroxy-1H-indol-3-yl)ethyl)nicotinamide] | higher activity at low nanomolar concentrations than at 1 μM |
| O=C(NCCc1c[nH]c2ccc(O)cc12)c1cccnc1F [Analogue 147, 2-fluoro-N-(2-(5-hydroxy-1H-indol-3yl)ethyl)nicotinamide] | higher activity at low nanomolar concentrations than at 1 μM |

Target: T2, TrkB
Test: not given
Conditions: cited from earlier work
Target sequence in this assay (Q16620 32-822, species assumed): as the sequence (Q16620 32-822) above

| Molecule | TrkB activation |
| --- | --- |
| CC(=O)NCCc1c[nH]c2ccc(O)cc12 [N-acetylserotonin] | activate TrkB |

Test system: AKT
Test: AKT phosphorylation, western blot, NIH 3T3 cells expressing human TrkB
Assay type: cell-based
Set-up: key: “+”=increased phosphorylation; “−”=decreased phosphorylation; “nc”=no change
Conditions: NIH 3T3 - TrkB cells
Procedure: as §1, §2

| Molecule | pAkt/β-actin |
| --- | --- |
| O=C(NCCc1c[nH]c2ccc(O)cc12)c1cncc(F)c1 [Analogue 127, 5-Fluoro-N-(2-(5-hydroxy-1H-indol-3-yl)ethyl)nicotinamide] | − |
| O=C1NCCCC1C(=O)NCCc1c[nH]c2ccccc12 (stereo not shown) [Analogue 145, N-(2-(1H-indol-3-yl)ethyl)-2-oxopiperidine-3-carboxamide] | + |
| O=C(NCCc1c[nH]c2ccc(O)cc12)c1cccnc1F [Analogue 147, 2-fluoro-N-(2-(5-hydroxy-1H-indol-3yl)ethyl)nicotinamide] | + |
| COc1ccc2[nH]cc(CCNC(=O)C3CCCNC3=O)c2c1 (stereo not shown) [Analogue 149, N-(2-(5-methoxy-1H-indol-3-yl)ethyl)-2-oxopiperidine-3-carboxamide] | + |
| CC1(C(=O)NCCc2c[nH]c3ccc(O)cc23)CCCNC1=O (stereo not shown) [Analogue 170, N-(2-(5-hydroxy-1H-indol-3-yl)ethyl)-3-methyl-2-oxopiperidine-3-carboxamide] | + |
| B1 | + |
